# Assay results from PubChem BioAssay (NCI).
#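 The compound was tested at five concentrations on cells cultured in 96-well plates, with a 48-hour exposure period. TGI: concentration producing complete growth inhibition.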
# Key:
# Assay in all cases: growth of human tumour cells (NCI), 48 h
# [1] = test system: EKVX NSCLC
# [2] = test system: CCRF-CEM leukemia
# [3] = test system: TK-10 renal
# [4] = test system: UACC-257 melanoma
# [5] = test system: SK-MEL-28 melanoma
# [6] = test system: HOP-92 NSCLC
# [7] = test system: SNB-75 CNS
# [8] = test system: NCI-H460 lung
# [9] = test system: NCI-H226 lung
# [10] = test system: 786-0 renal
# [11] = test system: IGROV1 ovarian
# [12] = test system: SK-MEL-5 melanoma
# [13] = test system: A549 NSCLC
# [14] = test system: OVCAR-8 ovarian
# [15] = test system: DU-145 prostate
# [16] = test system: OVCAR-3 ovarian
# [17] = test system: SF-539 CNS
# [18] = test system: A498 renal
# [19] = test system: SK-MEL-2 melanoma
SMILES,TGI [1],TGI [2],TGI [3],TGI [4],TGI [5],TGI [6],TGI [7],TGI [8],TGI [9],TGI [10],TGI [11],TGI [12],TGI [13],TGI [14],TGI [15],TGI [16],TGI [17],TGI [18],TGI [19]
Nc1ccccc1/C=C\c1ccccc1,> 100 µM,> 100 µM,> 100 µM,> 100 µM,> 100 µM,> 100 µM,> 100 µM,> 100 µM,> 100 µM,> 100 µM,> 100 µM,> 100 µM,> 100 µM,> 100 µM,> 100 µM,> 100 µM,> 100 µM,–,–
CC(=O)N1CC(C)(C)c2c1cc(C)c(O)c2C,> 100 µM,> 100 µM,> 100 µM,> 100 µM,> 100 µM,–,–,> 100 µM,> 100 µM,> 100 µM,> 100 µM,> 100 µM,> 100 µM,> 100 µM,> 100 µM,> 100 µM,> 100 µM,> 100 µM,> 100 µM
COC(=O)c1c(C)ccc2c(O)c3c(cc12)C(=O)c1c2c(cc(O)c1C3=O)C1(C)OC(C)(O2)C(O)C(N(C)C)C1O (stereo not given),8.75 µM,–,2.68 µM,3.09 µM,11.8 µM,> 100 µM,12.7 µM,–,11.5 µM,1.95 µM,–,17.3 µM,–,2.27 µM,2.46 µM,9.59 µM,12.8 µM,7.46 µM,5.65 µM
O=c1[nH]c2nccnc2c2c([N+](=O)[O-])cccc12,> 100 µM,> 100 µM,> 100 µM,–,> 100 µM,–,> 100 µM,> 100 µM,> 100 µM,> 100 µM,> 100 µM,> 100 µM,> 100 µM,> 100 µM,> 100 µM,> 100 µM,> 100 µM,> 100 µM,> 100 µM
NNC(=O)Cc1cccnc1,> 100 µM,> 100 µM,> 100 µM,> 100 µM,> 100 µM,> 100 µM,> 100 µM,> 100 µM,–,> 100 µM,> 100 µM,> 100 µM,> 100 µM,> 100 µM,> 100 µM,> 100 µM,> 100 µM,> 100 µM,> 100 µM
Fc1ccc(C2NC(=S)NC3=C2CCOc2c3ccc3ccccc23)cc1 (stereo not given),> 100 µM,> 100 µM,> 100 µM,> 100 µM,–,> 100 µM,> 100 µM,> 100 µM,–,> 100 µM,> 100 µM,37.1 µM,> 100 µM,> 100 µM,> 100 µM,> 100 µM,> 100 µM,79.5 µM,> 100 µM
Cc1cccc(/C=N/NC(=S)N2CCCCCC2)n1,9.32 µM,–,4.8 µM,1.91 µM,> 100 µM,> 89.1 µM,0.758 µM,1.18 µM,7.46 µM,0.775 µM,1.55 µM,2 µM,17.2 µM,0.428 µM,–,–,0.549 µM,13.5 µM,19.2 µM
N#CC(c1nc2ccccc2s1)c1nc(Cl)ncc1Br (stereo not given),> 100 µM,–,> 100 µM,> 100 µM,> 100 µM,52 µM,71 µM,> 100 µM,> 100 µM,> 100 µM,> 100 µM,43.5 µM,> 100 µM,> 100 µM,> 100 µM,97.7 µM,82 µM,> 100 µM,–
CC1(C)C2CCC1(C)C(N/C(=C(/C(Cl)=C(Cl)Cl)[N+](=O)[O-])n1nnc3ccccc31)C2 (stereo not given),> 100 µM,> 100 µM,–,> 100 µM,> 100 µM,–,70 µM,> 100 µM,50.3 µM,> 100 µM,–,–,> 100 µM,> 100 µM,–,32.6 µM,> 100 µM,37.5 µM,61 µM
N#CN=C1c2ccccc2C(=NC#N)c2cc(CO)ccc21,> 100 µM,–,> 100 µM,> 100 µM,> 100 µM,77 µM,60.7 µM,> 100 µM,> 100 µM,> 100 µM,90.7 µM,> 100 µM,> 100 µM,> 100 µM,69 µM,> 100 µM,> 100 µM,74.4 µM,> 100 µM
OC12C3C4CC5C(C4[C@@H]1Br)C2[C@@](O)(c1c(F)c(F)c(F)c(F)c1F)C53 (stereo not given in full),98.9 µM,> 100 µM,> 100 µM,> 100 µM,> 100 µM,68.7 µM,–,> 100 µM,–,> 100 µM,> 100 µM,59.3 µM,> 100 µM,> 100 µM,> 100 µM,65.8 µM,> 100 µM,> 100 µM,69.2 µM
CC1=NC2(CCCCC2)N(Cl)C(=O)C1SC#N (stereo not given),31.9 µM,12.8 µM,35.1 µM,–,34.9 µM,–,44.5 µM,–,40.1 µM,31.9 µM,34.4 µM,39.8 µM,24.8 µM,32.7 µM,> 100 µM,35.2 µM,35.9 µM,> 100 µM,48.2 µM
O=C(Nc1ccccc1)c1cc(S(=O)(=O)Nc2n[nH]c(=O)[nH]2)c(SSc2cc(Cl)c(C(=O)Nc3ccccc3)cc2S(=O)(=O)Nc2n[nH]c(=O)[nH]2)cc1Cl,> 100 µM,> 100 µM,> 100 µM,> 100 µM,> 100 µM,> 100 µM,> 100 µM,> 100 µM,> 100 µM,> 100 µM,> 100 µM,> 100 µM,> 100 µM,> 100 µM,–,> 100 µM,–,> 100 µM,> 100 µM
CC(=O)Nc1ccc(N2C(=O)CS(=O)(=O)C2c2cccc(Oc3ccccc3)c2)cc1 (stereo not given),35.5 µM,> 100 µM,41.7 µM,33.8 µM,48.3 µM,29.5 µM,55.2 µM,34.7 µM,35.8 µM,35.7 µM,–,28.7 µM,48.8 µM,41.6 µM,> 100 µM,38.2 µM,36.4 µM,–,37.3 µM
O=c1c(/C=C/c2c(O)ccc3ccccc23)nnc2sc(-c3cccc([N+](=O)[O-])c3)nn12,79.4 µM,–,89.3 µM,51 µM,> 100 µM,> 100 µM,–,–,–,> 100 µM,> 100 µM,–,–,> 100 µM,> 100 µM,7.23 µM,–,–,70.1 µM
N#Cc1ccc(/C=N/NC(=O)CSCC(=O)N/N=C/c2ccc(C#N)cc2)cc1,> 100 µM,–,> 100 µM,> 100 µM,> 100 µM,> 100 µM,81.9 µM,> 100 µM,> 100 µM,> 100 µM,> 100 µM,> 100 µM,> 100 µM,> 100 µM,> 100 µM,> 100 µM,> 100 µM,> 100 µM,> 100 µM
Cc1c(NC(=S)N/N=C\C(=N/NC(=S)Nc2c(C)n(C)n(-c3ccccc3)c2=O)c2ccccc2)c(=O)n(-c2ccccc2)n1C,> 100 µM,–,> 100 µM,> 100 µM,–,> 100 µM,> 100 µM,> 100 µM,> 100 µM,> 100 µM,–,> 100 µM,> 100 µM,–,> 100 µM,> 100 µM,> 100 µM,> 100 µM,> 100 µM
Cc1ccccc1C(=O)C#Cc1cn(C2CC(O)C(CO)O2)c(=O)[nH]c1=O (stereo not given),> 100 µM,67.3 µM,> 100 µM,> 100 µM,> 100 µM,> 100 µM,> 100 µM,> 100 µM,> 100 µM,> 100 µM,> 100 µM,> 100 µM,> 100 µM,> 100 µM,> 100 µM,> 100 µM,> 100 µM,–,> 100 µM
CC(C)=CC(C)C(C(O)CCC1(c2ccoc2)OCCO1)S(=O)(=O)c1ccccc1 (stereo not given),> 100 µM,> 100 µM,> 100 µM,> 100 µM,> 100 µM,–,> 100 µM,> 100 µM,> 100 µM,> 100 µM,> 100 µM,> 100 µM,> 100 µM,> 100 µM,–,> 100 µM,> 100 µM,> 100 µM,> 100 µM
O=C1c2cc([N+](=O)[O-])cnc2S(=O)(=O)N1c1ccc(Br)cc1,> 100 µM,> 100 µM,> 100 µM,> 100 µM,> 100 µM,> 100 µM,> 100 µM,> 100 µM,> 100 µM,> 100 µM,> 100 µM,> 100 µM,> 100 µM,> 100 µM,> 100 µM,> 100 µM,> 100 µM,–,> 100 µM
OCc1c2c(cc3c1CC1(C3)Cc3cc4c(c(CO)c3C1)CCC4)CCC2,30.5 µM,25.9 µM,36.2 µM,23.8 µM,–,33.1 µM,–,–,28.5 µM,27.7 µM,30.2 µM,17.9 µM,30.9 µM,38 µM,–,28.3 µM,32.1 µM,30.3 µM,36.7 µM
COc1cc2c(cc1OC)C1=Cc3ccc(OC)c(OC)c3C(C#N)N1CC2 (stereo not given),> 100 µM,> 100 µM,> 100 µM,47.4 µM,> 100 µM,–,33.8 µM,> 100 µM,> 100 µM,> 100 µM,–,38.6 µM,> 100 µM,–,> 100 µM,> 100 µM,> 100 µM,> 100 µM,43.4 µM
CCOC(=O)CN=C1Nc2ccccc2C(=O)N2CSCC12 (stereo not given),> 100 µM,> 100 µM,> 100 µM,> 100 µM,> 100 µM,–,> 100 µM,> 100 µM,> 100 µM,> 100 µM,> 100 µM,> 100 µM,> 100 µM,> 100 µM,> 100 µM,> 100 µM,–,> 100 µM,> 100 µM
Nc1nc2cc(CNc3ccc(C(=O)O)cc3)ccc2nc1-c1ccccc1,–,> 100 µM,> 100 µM,> 100 µM,> 100 µM,–,> 100 µM,> 100 µM,> 100 µM,> 100 µM,> 100 µM,> 100 µM,> 100 µM,> 100 µM,> 100 µM,> 100 µM,> 100 µM,> 100 µM,> 100 µM
CCOC(=O)c1[nH]cnc1/N=N/N(C)N,> 100 µM,–,> 100 µM,> 100 µM,> 100 µM,–,> 100 µM,> 100 µM,> 100 µM,> 100 µM,> 100 µM,> 100 µM,> 100 µM,> 100 µM,> 100 µM,> 100 µM,> 100 µM,> 100 µM,> 100 µM
CCCN=C1Nc2ccccc2[C@@H]2N(C)c3ccccc3C(C)C[C@]12C (stereo not given in full),> 100 µM,62.9 µM,34.2 µM,25.6 µM,33.5 µM,–,49.8 µM,55.4 µM,73.4 µM,33.9 µM,43.5 µM,29.2 µM,> 100 µM,28.9 µM,> 100 µM,54.1 µM,30.5 µM,28.6 µM,28.1 µM
CC(C)=NNc1cnnc2ccc([N+](=O)[O-])cc12,> 100 µM,> 100 µM,–,> 100 µM,–,> 100 µM,> 100 µM,> 100 µM,> 100 µM,> 100 µM,> 100 µM,> 100 µM,> 100 µM,> 100 µM,> 100 µM,–,> 100 µM,–,> 100 µM
Cc1ccc(S(=O)(=O)NC(=O)NC(Cc2ccccc2)C(=O)O)cc1 (stereo not given),–,> 100 µM,> 100 µM,> 100 µM,> 100 µM,> 100 µM,> 100 µM,> 100 µM,–,> 100 µM,> 100 µM,> 100 µM,> 100 µM,> 100 µM,> 100 µM,–,> 100 µM,–,> 100 µM
